Measurements from US8143307B2, “Benzothiophen-2-carbonylguanidine derivatives, preparation thereof, and pharmaceutical composition containing the same” (Korea Research Institute of Chemical Technology, priority 2004, dated 2012).

What was measured:
[1] = system: isolated ischemic rat heart; experiment: Cardioprotective effect in isolated ischemic rat heart model (Langendorff); details: 10 μM, 30 min global ischemia, 30 min reperfusion
Description: Male rats (300 450 g, the Korea Research Institute of Chemical Technology, Experimental Animal Lab) were anesthetized by intraperitoneal injection with sodium pentobarbital at a dose of 100 mg/kg and were intravenously administered with heparine at a dose of 1000 U/kg, followed by the excision of the heart. In detail, a tracheotomy was performed and a tracheal cannula (PE 240) was inserted into the trachea for subsequent artificial ventilation with room air using a rodent ventilator. […] A catheter tip manometer connected to a latex balloon filled with a mixture of ethanol and distilled water (1:1 v/v) was inserted via an incision in the left atrium into the left ventricle, and the intraventricular pressure thereof transmitted to the latex balloon was measured isovolumetrically with a transducer and recorded on a recording system (Linearcorder mark 8 WR 3500) with the aid of an amplifier (Plugsys bridge amplifier). After stabilizing the heart for 15 min, the balloon volume was adjusted to create a left ventricular end-diastolic pressure (LVEDP) of 5 mmHg during the initial baseline period. The volume of the balloon was maintained until the end of the experiment. Baseline heart contraction function, spontaneous heart rate (HR) and coronary flow (CF) were determined from the left ventricular contraction interval. The left ventricular developed pressure (LVDP), which is regarded as an index of contractile function of the isolated heart, was calculated by subtracting left ventricular end-diastolic pressure (LVEDP) from left ventricular peak systolic pressure (LVSP). In contrast to the heart in the body, the Langendorff heart cannot be measured for cardiac output and thus, RPP (rate-pressure product), which is an important indirect indicator for cardiac performance, was calculated by multiplying heart rate (HR) by LVDP. Throughout the experiment, the temperature of the heart was maintained constant by […] in a 37° C. physiological solution to which 95% O2/5% CO2 was continuously supplied. The heart thus stabilized was perfursed for 10 min with a solution of the compounds of the invention or control drugs in DMSO (dimethylsulfoxide) diluted with HBS (final DMSO conc. 0.04%), or with the solvent only (a negative control; 0.04% DMSO) and then measured again for contractile function, heart rate (HR) and coronary flow (CF). The supply of perfusates was completely stopped for 30 min in order to induce global ischemia in the heart, followed by reperfusion for 30 min. The indices (LVDP, HR, LVEDP, and CF) were measured again. After the reperfusion, the total level of lactate dehydrogenase (LDH) in the reperfusates was measured using a kit and taken as an index of ischemic myocardial injury. A negative control group was treated with the solvent only while cariporide was used as a positive control.

Human NHE-1 = target: T1, Human NHE-1 (Homo sapiens, UniProt P19634); experiment: Inhibitory effect on NHE-1 in PS120/NHE-1 cells (recovery from intracellular acidosis, BCECF fluorescence); type: cell-based; details: human NHE-1 expressed PS120 cells; concentration at which recovery from intracellular acidosis was 50% inhibited
T1 construct: expressed in transfected cells; host or cells: CCL39-derived PS120 cells (PS120/NHE-1)
Description: The benzothiophen-2-carbonylguanidine derivatives of the present invention were examined for NHE-1 inhibitory effect in cells according to the following procedure.
Human NHE-1 was expressed in CCL39-derived PS120 cells. These human NHE-1 expressed cells were cultured in DMEM (Dulbecco's modified Eagle's medium) supplemented with 10% fetal bovine serum, 1% penicillin/streptomycin (100× solution), 1% L-glutamine (200 mM aqueous solution). The PS120/NHE-1 cells grown in 100 mm dishes were treated with trypsin at 80-90% confluency, followed by washing with PBS (phosphate buffer saline) once, and then once with an Na-free buffer (138.2 mM Choline chloride, 4.9 mM KCl, […]. 2H2O, 1.2 mM MgSO4.7H2O, 1.2 mM KH2PO4, 15 mM D-glucose, 20 mM HEPES, at pH 7.4). After centrifugation, the pellet was suspended in an Na-free buffer containing 20 mM NH4Cl and 10 μM BCECF-AM [2′,7′-bis(2-carboxyethyl)-5,6-carboxy-fluorescein acetoxymethyl ester] and incubated at 37° C. for 30 min in a CO2 incubator. After being harvested by centrifugation, the PS120/NHE-1 cells were washed once with an Na-free buffer to remove both NH4Cl and extracellular BCECF-AM, suspended at a density of 2.5×10^4 cells/10 μl and stored at 4° C. in a dark room until reuse. In each well of 96-well microplates, 180 μl of HBS (137 mM NaCl, 4.9 mM KCl, 1.5 mM CaCl2. 2H2O, 1.2 mM MgSO4.7H2O, 1.2 mM KH2PO4, 15 mM D-glucose, 20 mM HEPES, at pH 7.4) and 10 μl of DMSO or 10 μl of a solution of the compound (0.03˜10 μM) of the present invention in DMSO were placed and well mixed, after which 10 μl aliquots of the intracellular acidosis-induced PS120/NHE-1 cells were added thereto. 4 min after the cell addition, fluorescence (excitation: 485/444 nm, emission: 535 nm) was measured in the GEMINI-XS Microplate Spectrofluorometer (Molecular Devices). The fluorescence measured was converted into pH values using a high-K^+/nigericin technique. The cells in which intracellular acidosis was induced with NH4Cl prepulses, were recovered to normal pH values through the operation of NHE-1. The inhibitory effect of the compound against NHE-1 was evaluated as concentrations at which the recovery from the intracellular acidosis to a normal state was 50% inhibited (IC50 values), with cariporide used as a control.

[2] = system: in vivo ischemic rat heart model; experiment: Cardioprotective effect on in vivo ischemic rat heart model (coronary occlusion/reperfusion, infarct size); details: 45 min occlusion, 90 min reperfusion
Description: The cardioprotective effect of the benzothiophen-2-carbonylguanidine derivatives according to the present invention in in vivo ischemic hearts was judged with regard to their antischemic effects (myocardiac infarction reduction) on rats as follows.
Each male rat (300˜450 g, the Korea Research Institute of Chemical Technology, Experimental Animal Lab) was anesthetized by intraperitoneal injection with sodium pentobarbital at a dose of 75 mg/kg. Tracheotomy was performed and a tube was inserted into the trachea for subsequent artificial ventilation with a stroke volume of 10 ml/kg and a respiratory rate of 60 breaths/min. The femoral vein and the femoral artery were cannulated for the administration of the compounds and for the measurement of blood pressures, respectively. Meanwhile, the body temperature of the rats, an important factor to influence experimental results in the ischemic myocardiac injury model, was maintained constant at 37° C. using a homeothermic blanket control unit, with a body temperature-monitoring probe inserted into the rectum. Subsequently, rats were continuously measured for mean arterial blood pressure and heart rate HR throughout the experimental time period using a Statham P23XL pressure transducer (Grass Ins., Mass., USA) and an ECG/RATE Coupler (Hugo Sachs Electronic, Germany), respectively, with all continuous changes thereof recorded by Graphtec Linearcorder WR 3310 (Hugo Sachs Electronic).
The left coronary artery was occluded according to Selye H.'s method. In detail, after the chest of each rat was partially opened by left thoracotomy, the middle finger of the left hand was pressed against the right side of the chest of the rat to thrust out the heart which was then slightly fixed with the forefinger and the thumb of the same hand. Then, immediately after the left anterior descending coronary artery (LAD) was sutured with a 5-0 silk ligature, the heart was repositioned back in the thoracic cavity with both ends of the suture positioned outside. The ends of the suture were threaded through a PE tube (PE100, 2.5 cm) and allowed to stand for 20 min for stabilization. Through the cannula inserted into the femoral vein, a vehicle or the compounds of the invention were administered and 30 min was needed for sufficient effects of the administered compounds. Cariporide was used as a control. The ends of the suture threaded through the PE tube were pulled taut with hemostatic forceps to vertically press the PE tube against the coronary artery. After occlusion for 45 min, the hemostatic forceps were removed and reperfusion was conducted for 90 min.
The coronary artery was reoccluded in the same manner as described above, followed by the intravenous injection of 2 ml of 1% Evans blue. The intravenous injection of an excess of pentobarbital killed the rats, from which the hearts were then excised. The left ventricle was removed alone from the isolated heart and transected from the cardiac apex into 5 or 6 slices. Each slice was weighed. The image of each of the heart slices was captured using a Hi-scope, a compact vision system, and analyzed for blue-stained normal areas and non-stained areas with an image analyzing program (Image Pro Plus). In each slice, the area at risk (AAR) was calculated by multiplying the ratio of the non-stained area to the total area of the slice with the weight of the slice. Sum of the individual area at risk (AAR) for each slice was divided by the total weight of the left ventricle to obtain AAR (%) according to the following mathmatical formula 1.
Separately, the heat slices were incubated in 1%. 2,3,5-triphenyltetrazolium chloride (TTC) phosphate buffer (pH 7.4), 37° C., for 15 min and fixed in 10% formalin for 20˜24 hours. In the normal area of the tissue, 2,3,5-triphenyltetrazolium chloride was reduced by the myocardial dehydrogenase in the presence of the cofactor NADH to form formazan dye, which appeared as a brick-red color. […]

T1 sequence (P19634 whole entry): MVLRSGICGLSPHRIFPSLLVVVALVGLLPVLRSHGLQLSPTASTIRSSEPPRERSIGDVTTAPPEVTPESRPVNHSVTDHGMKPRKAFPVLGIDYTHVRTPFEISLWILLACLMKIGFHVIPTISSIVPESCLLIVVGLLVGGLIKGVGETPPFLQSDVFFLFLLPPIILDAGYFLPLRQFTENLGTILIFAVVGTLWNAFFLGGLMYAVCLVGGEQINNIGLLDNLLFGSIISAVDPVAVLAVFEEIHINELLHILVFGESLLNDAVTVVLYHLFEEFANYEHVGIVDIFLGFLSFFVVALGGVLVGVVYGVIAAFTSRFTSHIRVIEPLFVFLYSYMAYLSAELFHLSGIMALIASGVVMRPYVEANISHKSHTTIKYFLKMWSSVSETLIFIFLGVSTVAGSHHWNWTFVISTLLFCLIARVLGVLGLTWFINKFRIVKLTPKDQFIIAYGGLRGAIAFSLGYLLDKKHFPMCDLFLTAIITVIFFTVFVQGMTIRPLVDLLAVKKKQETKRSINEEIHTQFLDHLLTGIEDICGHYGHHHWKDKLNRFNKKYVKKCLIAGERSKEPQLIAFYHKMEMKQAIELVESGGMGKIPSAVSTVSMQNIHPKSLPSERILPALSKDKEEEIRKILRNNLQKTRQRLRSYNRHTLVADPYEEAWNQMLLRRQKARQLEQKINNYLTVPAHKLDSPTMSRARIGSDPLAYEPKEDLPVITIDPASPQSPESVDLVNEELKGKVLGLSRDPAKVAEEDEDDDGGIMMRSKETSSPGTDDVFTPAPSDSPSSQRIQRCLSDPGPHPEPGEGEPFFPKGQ

Row | Compound | LDH (free LDH level upon reperfusion) [1] | LVEDP (left ventricular end-diastolic pressure) [1] | RPP (rate-pressure product (LVDP × HR) % relative to the value before ischemia induction) [1] | IC50 (Human NHE-1) | Myocardiac infarction rate (IS/AAR, %) ([2]; 0.1 mg/kg intravenous) | Myocardiac infarction rate (IS/AAR, %) ([2]; 0.3 mg/kg intravenous)
1 | CC(C)c1ccc(C(=O)NC(=N)N)cc1S(C)(=O)=O [Cariporide, cariporide, reference compound] | 19.3 u/g | 22.4 mmHg | 69.8% | 680 nM | 40.5% | 37.9%
2 | CCc1cccc2sc(C(=O)N=C(N)N)cc12.CS(=O)(=O)O [Example 37, (4-Ethylbenzothiophene-2-Carbonyl)Guanidine Methanesulfonate] | 7.1 u/g | 37.7 mmHg | 43.4% | 270 nM | 51.6% | 
